Measured values reported in patent US9315517B2, “Imidazol-piperidinyl derivatives as modulators of kinase activity” (Merck Patent GmbH, priority 2012, dated 2016).

Legend:
[1] = biological target: T1, P70S6K (T412E mutant, Millipore) (Homo sapiens, UniProt P23443, T412E); assay: P70S6K enzyme assay; format: biochemical; conditions: enzyme inhibition; 24 μM ATP, 90 min at 25° C., Caliper mobility shift
T1 construct: purchased Millipore
Experimental: (§1) The IC50 values reported for the compounds in the Experimental section were derived from the following protocol for the p70S6K and AKT enzyme assays.
P70S6K inhibitor compounds were diluted and plated in 96 well plates. A reaction mixture including the following components was then added to the compound plate to initiate the enzyme reaction; P70S6K (3 nM, T412E mutant, Millipore) was mixed with 24 μM ATP in an assay buffer containing 100 mM Hepes (pH 7.5), 5 mM MgCl2, 1 mM DTT, 0.015% Brij and 1 μM of the substrate peptide FITC-AHA-AKRRRLSSLRA-OH (derived from the S6 ribosomal protein sequence, FITC=fluorescein isothiocyanate, AHA=6-aminohexanoic acid). The reaction was incubated for 90 min at 25° C., before the addition of 10 mM EDTA to stop the reaction. The proportion of substrate and product (phosphorylated) peptide was analysed on a Caliper Life Sciences Lab Chip 3000, using a pressure of −1.4 psi, and upstream and downstream voltages of −3000 and −700 respectively. Product peaks were resolved before substrate peaks on the resulting chromatograms.

His-AKT (Full Length) = biological target: T2, His-AKT (Full Length) (Homo sapiens, UniProt P31749); assay: AKT enzyme assay; format: biochemical; conditions: enzyme inhibition; 160 uM ATP, 90 min at 25° C., Caliper mobility shift
T2 construct: 0.1 ng/μl His-AKT (Full Length); His; purchased Invitrogen P2999
T2 sequence (P31749 whole entry): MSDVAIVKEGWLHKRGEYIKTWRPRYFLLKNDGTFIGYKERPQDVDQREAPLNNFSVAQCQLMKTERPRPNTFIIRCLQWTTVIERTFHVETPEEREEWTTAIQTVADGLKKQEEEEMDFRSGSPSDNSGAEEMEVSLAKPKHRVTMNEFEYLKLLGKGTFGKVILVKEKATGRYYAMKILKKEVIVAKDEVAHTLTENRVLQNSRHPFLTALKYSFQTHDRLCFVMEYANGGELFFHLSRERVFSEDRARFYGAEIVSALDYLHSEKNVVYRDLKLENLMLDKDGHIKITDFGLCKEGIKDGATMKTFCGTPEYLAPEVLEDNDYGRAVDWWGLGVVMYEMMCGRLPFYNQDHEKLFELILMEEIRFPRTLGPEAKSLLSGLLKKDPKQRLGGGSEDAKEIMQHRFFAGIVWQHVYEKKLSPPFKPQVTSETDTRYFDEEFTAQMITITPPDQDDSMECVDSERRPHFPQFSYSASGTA
Experimental: as §1
A TTP Mosquito liquid handling instrument was used to place 125 nl of the appropriate concentration of inhibitor in 100% DMSO (for a dose response curve calculation) into each well of a 384-well plate. To this reaction components were added to a final volume of 12.5 μl: • 0.1 ng/μl His-AKT (Full Length), (Invitrogen, Part # P2999, Lot # 641228C). • 160 uM ATP (Fluke, 02055) • 1 mM DTT (Sigma, D0632) • 1 mM MgCl2 (Sigma, M1028) • 1 μM substrate peptide (sequence FITC-AHA-GRPRTSSFAEG-NH2), synthesized by Tufts Peptide Synthesis service. • 100 mM HEPES pH 7.5 (Calbiochem, 391338) • 0.015% Brij-35 (Sigma, B4184)
The reaction was incubated for 90 min at 25° C., and then stopped by the addition of 70 μl of Stop buffer (100 mM HEPES pH 7.5, 0.015% Brij-35, 10 mM EDTA (Sigma, E7889)).
The plate was read on a Caliper LC 3000 in an Off-Chip mobility shift assay format, using the following parameters for a 12-sipper chip: screening pressure −2.3 psi, upstream voltage −500, and downstream voltage −3000. These conditions caused unphosphorylated substrate and phosphorylated product peptide to resolve as separate peaks allowing direct measurement of percentage of conversion of substrate to product. The percent conversion was plotted against concentration of inhibitor to produce a sigmoidal dose response curve, from which an IC50 was calculated.

T1 sequence (P23443 whole entry T412E): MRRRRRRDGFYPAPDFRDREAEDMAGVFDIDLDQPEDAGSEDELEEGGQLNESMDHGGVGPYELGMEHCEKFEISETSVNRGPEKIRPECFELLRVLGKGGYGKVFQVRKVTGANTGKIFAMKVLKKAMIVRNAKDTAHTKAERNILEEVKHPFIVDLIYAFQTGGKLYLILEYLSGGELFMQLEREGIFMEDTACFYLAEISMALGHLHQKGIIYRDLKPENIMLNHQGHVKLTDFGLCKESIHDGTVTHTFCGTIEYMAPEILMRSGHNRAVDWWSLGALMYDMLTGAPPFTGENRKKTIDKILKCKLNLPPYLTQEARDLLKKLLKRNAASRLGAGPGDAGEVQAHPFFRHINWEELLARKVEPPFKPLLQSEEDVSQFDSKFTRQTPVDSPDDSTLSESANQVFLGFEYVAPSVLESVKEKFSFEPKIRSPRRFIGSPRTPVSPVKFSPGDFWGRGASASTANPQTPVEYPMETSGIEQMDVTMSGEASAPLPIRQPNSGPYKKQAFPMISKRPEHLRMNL

SMILES | IC50 [1] [nM] | IC50 (His-AKT (Full Length)) [nM]
O=C1CNc2ncnc(N3CCC(c4nc(-c5ccccc5)cn4CCN4CCCC4)CC3)c2N1 [Compound A45, 4-{4-[4-Phenyl-1-(2-pyrrolidin-1-yl-ethyl)-1H-imidazol-2-yl]-piperidin-1-yl}-7,8-dihydro-5H-pteridin-6-one] | 101 to 500 | 501 to 1000
CN(C)CCn1cc(-c2ccc(F)c(F)c2)nc1C1CCN(c2ncnc3c2NC(=O)CN3)CC1 [Compound A46, 4-{4-[4-(3,4-DifluoroPhenyl)-1-(2-dimethylamin-1-yl-ethyl)-1H-imidazol-2-yl]-piperidin-1-yl}-7,8-dihydro-5H-pteridin-6-one] | 26 to 100 | 101 to 500
CN(C)CCn1cc(-c2cccc(Cl)c2)nc1C1CCN(c2ncnc3c2NC(=O)CN3)CC1 [Compound A47, 4-{4-[4-(3-ChloroPhenyl)-1-(2-dimethylamin-1-yl-ethyl)-1H-imidazol-2-yl]-piperidin-1-yl}-7,8-dihydro-5H-pteridin-6-one] | 101 to 500 | 101 to 500
CN(C)CCn1cc(-c2cccnc2)nc1C1CCN(c2ncnc3c2NC(=O)CN3)CC1 [Compound A48, 4-{4-[4-(Pyridin-3-yl)-1-(2-dimethylamin-1-yl-ethyl)-1H-imidazol-2-yl]-piperidin-1-yl}-7,8-dihydro-5H-pteridin-6-one] | > 1000 | > 1000
Cc1ccc(-c2cn(CCN(C)C)c(C3CCN(c4ncnc5c4NC(=O)CN5)CC3)n2)cc1 [Compound A49, 4-{4-[4-(4-MethylPhenyl)-1-(2-dimethylamin-1-yl-ethyl)-1H-imidazol-2-yl]-piperidin-1-yl}-7,8-dihydro-5H-pteridin-6-one] | 101 to 500 | > 1000
CN(C)CCn1cc(-c2ccc(F)cc2)nc1C1CCN(c2ncnc3c2NC(=O)CN3)CC1 [Compound A50, 4-{4-[4-(4-FluoroPhenyl)-1-(2-dimethylamin-1-yl-ethyl)-1H-imidazol-2-yl]-piperidin-1-yl}-7,8-dihydro-5H-pteridin-6-one] | 101 to 500 | 501 to 1000
COc1cccc(-c2cn(CCN(C)C)c(C3CCN(c4ncnc5c4NC(=O)CN5)CC3)n2)c1 [Compound A51, 4-{4-[4-(3-Methoxy-phenyl)-1-(2-dimethylamin-1-yl-ethyl)-1H-imidazol-2-yl]-piperidin-1-yl}-7,8-dihydro-5H-pteridin-6-one] | 101 to 500 | 501 to 1000
COc1ccc(-c2cn(CCN(C)C)c(C3CCN(c4ncnc5c4NC(=O)CN5)CC3)n2)cc1 [Compound A52, 4-{4-[4-(4-Methoxyl-henyl)-1-(2-dimethylamin-1-yl-ethyl)-1H-imidazol-2-yl]-piperidin-1-yl}-7,8-dihydro-5H-pteridin-6-one] | > 1000 | > 1000
CN(C)CCn1cc(-c2ccccc2)nc1C1CCN(c2ncnc3c2NC(=O)CN3)CC1 [Compound A53, 4-{4-[4-(Phenyl)-1-(2-dimethylamin-1-yl-ethyl)-1H-imidazol-2-yl]-piperidin-1-yl}-7,8-dihydro-5H-pteridin-6-one] | > 1000 | > 1000
Cc1cccc(-c2cn(CCN(C)C)c(C3CCN(c4ncnc5c4NC(=O)CN5)CC3)n2)c1 [Compound A54, 4-{4-[4-(3-MethylPhenyl)-1-(2-dimethylamin-1-yl-ethyl)-1H-imidazol-2-yl]-piperidin-1-yl}-7,8-dihydro-5H-pteridin-6-one] | 26 to 100 | 101 to 500
CN(C)CCn1cc(C(F)(F)F)nc1C1CCN(c2ncnc3c2NC(=O)CN3)CC1 [Compound A55, 4-{4-[4-(4-trifouromethyl)-1-(2-dimethylamino-1-yl-ethyl)-1H-imidazol-2-yl]-piperidin-1-yl}-7,8-dihydro-5H-pteridin-6-one] | > 1000 | > 1000
O=C1CNc2ncnc(N3CCC(c4nc(-c5ccc(F)c(F)c5)cn4CCN4CCCC4)CC3)c2N1 [Compound A56, 4-{4-[4-(3,4-DifluoroPhenyl)-1-(2-pyrrolidin-1-yl-ethyl)-1H-imidazol-2-yl]-piperidin-1-yl}-7,8-dihydro-5H-pteridin-6-one] | 26 to 100 | < 25
O=C1CNc2ncnc(N3CCC(c4nc(-c5cccc(Cl)c5)cn4CCN4CCCC4)CC3)c2N1 [Compound A57, 4-{4-[4-(3-ChloroPhenyl)-1-(2-pyrrolidin-1-yl-ethyl)-1H-imidazol-2-yl]-piperidin-1-yl}-7,8-dihydro-5H-pteridin-6-one] | 26 to 100 | 26 to 100
Cc1ccc(-c2cn(CCN3CCCC3)c(C3CCN(c4ncnc5c4NC(=O)CN5)CC3)n2)cc1 [Compound A58, 4-{4-[4-(4-MethylPhenyl)-1-(2-pyrrolidin-1-yl-ethyl)-1H-imidazol-2-yl]-piperidin-1-yl}-7,8-dihydro-5H-pteridin-6-one] | > 1000 | > 1000
O=C1CNc2ncnc(N3CCC(c4nc(-c5ccc(F)cc5)cn4CCN4CCCC4)CC3)c2N1 [Compound A59, 4-{4-[4-(4-FluoroPhenyl)-1-(2-pyrrolidin-1-yl-ethyl)-1H-imidazol-2-yl]-piperidin-1-yl}-7,8-dihydro-5H-pteridin-6-one] | 26 to 100 | 101 to 500
COc1cccc(-c2cn(CCN3CCCC3)c(C3CCN(c4ncnc5c4NC(=O)CN5)CC3)n2)c1 [Compound A60, 4-{4-[4-(3-MethoxyPhenyl)-1-(2-pyrrolidin-1-yl-ethyl)-1H-imidazol-2-yl]-piperidin-1-yl}-7,8-dihydro-5H-pteridin-6-one] | 101 to 500 | 101 to 500
COc1ccc(-c2cn(CCN3CCCC3)c(C3CCN(c4ncnc5c4NC(=O)CN5)CC3)n2)cc1 [Compound A61, 4-{4-[4-(4-MethoxyPhenyl)-1-(2-pyrrolidin-1-yl-ethyl)-1H-imidazol-2-yl]-piperidin-1-yl}-7,8-dihydro-5H-pteridin-6-one] | > 1000 | 501 to 1000
Cc1cccc(-c2cn(CCN3CCCC3)c(C3CCN(c4ncnc5c4NC(=O)CN5)CC3)n2)c1 [Compound A62, 4-{4-[4-(3-MethylPhenyl)-1-(2-pyrrolidin-1-yl-ethyl)-1H-imidazol-2-yl]-piperidin-1-yl}-7,8-dihydro-5H-pteridin-6-one] | 26 to 100 | 26 to 100
O=C1CNc2ncnc(N3CCC(c4nc(C(F)(F)F)cn4CCN4CCCC4)CC3)c2N1 [Compound A63, 4-{4-[trifluoromethyl-1-(2-pyrrolidin-1-yl-ethyl)-1H-imidazol-2-yl]-piperidin-1-yl}-7,8-dihydro-5H-ptericlin-6-one] | > 1000 | > 1000
